Measurements from patent US20040072738A1, “Analogues of thiocoraline and be-22179” (priority 2000, published 2004).
Values after ≈ are worked out from the molar mass of the structure shown. Bridge positions count the residues as written; N and C are the ends. Square brackets hold non-standard residues; d marks the D form. Peptide text beside a SMILES is read from it. I, II: the chains in the order shown. * marks the point of attachment. Quinaldoyl(3-OH,6-OMe) = COc1ccc2nc(C(=O)*)c(O)cc2c1; Quinoxaline2carbonyl = O=C(c1cnc2ccccc2n1)*; Quinaldoyl(3-OH) = O=C(c1nc2ccccc2cc1O)*; Fmoc = O=C(OCC1c2ccccc2-c2ccccc21)*; Quinaldoyl = O=C(c1ccc2ccccc2n1)*; NMeC = CN[C@@H](CS)C(=O)O; Cbz = O=C(OCc1ccccc1)*; NMeDha = C=C(NC)C(=O)O

Legend:
L1210 cell line = assay: cytotoxic activity in the L1210 assays; conditions: L1210 assays
[1] = solubility in aqueous buffer; assay type: physicochemical
[2] = cytotoxic activity in the L1210 assays
supercoiled ΦX174 DNA = assay: unwinding and rewinding of negatively supercoiled DNA, agarose gel electrophoresis; assay type: biochemical
From the text: Confirmation that thiocoraline and BE-22179 bind to DNA with bisintercalation was derived from their ability to induce the unwinding of negatively supercoiled DNA. This was established by their ability to gradually decrease the agarose gel electrophoresis mobility of supercoiled ΦX174 DNA (unwinding) at increasing concentrations followed by a return to normal mobility (rewinding) at even higher concentrations. Under the conditions employed, echinomycin unwound ΦX174 DNA at a 0.044 agent/base pair ratio (FIG. 11 and FIG. 12). Thiocoraline completely unwound ΦX174 DNA at a higher 0.11 agent/base pair ratio, whereas BE-22179 required even higher concentrations producing the unwinding at an agent/base pair ratio of 1.1. […] Thus, the distinctions in 1 and 2 and echinomycin detected here appear to be related to the nature of the cyclic depsipeptide and not the structure of the chromophore.
FIG. 8 is a table of comparative DNA binding properties. ^aCalf thymus DNA, KB=apparent binding constant determined by fluorescence quenching. The value in paren-theses is the agent/base pair ratio at saturated high-affinity binding and may be considered a measure of the selectivity of binding. ^bAgent/base pair ratio required to unwind negatively supercoiled FX174 DNA (form I to form II gel mobility, 0.9% agarose gel). ^cAgent/base pair ratio required to induce complete rewinding or positive super-coiling of FX174 DNA (form II to form I gel mobility, 0.9% agarose gel). ^dBinding constant established by footprinting at a 5′-CCGC site (FIG. 9).
(A) Lane 1, untreated supercoiled FX174 DNA, 95% form 1 and 5% form II; lanes 2-8, thiocoraline-treated FX174 DNA; lanes 9-14, echinomycin-treated FX174 DNA. The [agent]-to-[base pair] ratios were 0.022 (lanes 2 and 9), 0.033 (lanes 3 and 10), 0.044 (lanes 4 and 11), 0.066 (lanes 5 and 12), 0.11 (lanes 6 and 13), 0.22 (lanes 7 and 14), and 0.44 (lane 8). (B) Lane 1, untreated supercoiled FX174 DNA, lanes 2-12, BE-22179-treated FX174 DNA. The [agent]-to-[base pair] ratios were 0.022, (lane 2), 0.033 (lane 3), 0.044 (lane 4), 0.066 (lane 5), 0.11 (lane 6), 0.22 (lane 7), and 0.33 (lane 8), 0.44 (lane 9), 0.66 (lane 10), 1.1 (lane 11), and 2.2 (lane 12). (C) Lane 1, untreated supercoiled FX174 DNA, 95% form 1 and 5% form II; lanes 2-8, thiocoraline analogue (27)-treated FX174 DNA. The [agent]-to-[base pair] ratios were 0.022 (lane 2), 0.033 (lane 3), 0.044 (lane 4), 0.066 (lane 5), 0.11 (lane 6), 0.22 (lane 7), and 0.44 (lane 8).

[3] = biological target: HIV-1 reverse transcriptase (Human immunodeficiency virus type 1 group M subtype B, UniProt P03366); assay: inhibition of HIV-1 reverse transcriptase; assay type: biochemical

Structure (SMILES): CSC[C@H]1C(=O)SC[C@@H](NC(=O)c2ccc3ccccc3n2)C(=O)NCC(=O)N(C)[C@H]2CSSC[C@@H](C(=O)N1C)N(C)C(=O)CNC(=O)[C@H](NC(=O)c1ccc3ccccc3n1)CSC(=O)[C@H](CSC)N(C)C2=O [Compound 26, [N-(2-Quinoline Carboxyl)-D-Cys-Gly-NMe-L--Cys-NMe-L--Cys(Me)]2 (Cysteine Thiol) Dilactone] (I: Quinaldoyl-[dC]G[NMeC][NMeC](Me) / II: Quinaldoyl-[dC]G[NMeC][NMeC](Me); thioester I:1-II:C, I:C-II:1; disulfide I:3-II:3)
- cytotoxic activity (in words) (L1210 cell line): less potent cytotoxic activity

Structure (SMILES): CSC[C@H]1C(=O)SC[C@@H](NC(=O)OCc2ccccc2)C(=O)NCC(=O)N(C)[C@H]2CSSC[C@@H](C(=O)N1C)N(C)C(=O)CNC(=O)[C@H](NC(=O)OCc1ccccc1)CSC(=O)[C@H](CSC)N(C)C2=O [Compound 23, [N-Cbz-D-Cys-Gly-NMe-L--Cys-NMe-L--Cys(Me)]2 (Cysteine Thiol) Dilactone] (I: Cbz-[dC]G[NMeC][NMeC](Me) / II: Cbz-[dC]G[NMeC][NMeC](Me); thioester I:1-II:C, I:C-II:1; disulfide I:3-II:3)
- cytotoxic activity (in words) (L1210 cell line): inactive

Structure (SMILES): C=C1C(=O)SC[C@@H](NC(=O)c2nc3ccccc3cc2O)C(=O)NCC(=O)N(C)[C@H]2CSSC[C@@H](C(=O)N1C)N(C)C(=O)CNC(=O)[C@H](NC(=O)c1nc3ccccc3cc1O)CSC(=O)C(=C)N(C)C2=O [BE-22179] (I: {Quinaldoyl(3-OH)}-[dC]G[NMeC][NMeDha] / II: {Quinaldoyl(3-OH)}-[dC]G[NMeC][NMeDha]; thioester I:1-II:C, I:C-II:1; disulfide I:3-II:3)
- solubility ([1]; Tris-HCl pH 7.4, 75 mM NaCl, read-out: agent concentrations where the compounds are soluble): 1 to 10 µM (≈ 1.06 to 10.6 µg/mL)
- IC50 [2]: 400 pM

Structure (SMILES): CSC[C@H]1C(=O)SC[C@@H](NC(=O)OCC2c3ccccc3-c3ccccc32)C(=O)NCC(=O)N(C)[C@H]2CSSC[C@@H](C(=O)N1C)N(C)C(=O)CNC(=O)[C@H](NC(=O)OCC1c3ccccc3-c3ccccc31)CSC(=O)[C@H](CSC)N(C)C2=O [Compound 32] (I: Fmoc-[dC]G[NMeC][NMeC](Me) / II: Fmoc-[dC]G[NMeC][NMeC](Me); thioester I:1-II:C, I:C-II:1; disulfide I:3-II:3)
- cytotoxic activity (in words) (L1210 cell line): inactive

Structure (SMILES): COc1ccc2nc(C(=O)N[C@@H]3CSC(=O)[C@H](CSC)N(C)C(=O)[C@@H]4CSSC[C@@H](C(=O)N(C)[C@@H](CSC)C(=O)SC[C@@H](NC(=O)c5nc6ccc(OC)cc6cc5O)C(=O)NCC(=O)N4C)N(C)C(=O)CNC3=O)c(O)cc2c1 [Compound 28, [N-(3-Hydroxy-6-methoxy-2-quinoline carboxyl)-D-Cys-Gly-NMe-L--CyS-NMe-L--Cys(Me)]2 (Cysteine Thiol) Dilactone] (I: {Quinaldoyl(3-OH,6-OMe)}-[dC]G[NMeC][NMeC](Me) / II: {Quinaldoyl(3-OH,6-OMe)}-[dC]G[NMeC][NMeC](Me); thioester I:1-II:C, I:C-II:1; disulfide I:3-II:3)
- cytotoxic activity (in words) (L1210 cell line): potent activity

Structure (SMILES): CSC[C@H]1C(=O)SC[C@@H](NC(=O)c2cnc3ccccc3n2)C(=O)NCC(=O)N(C)[C@H]2CSSC[C@@H](C(=O)N1C)N(C)C(=O)CNC(=O)[C@H](NC(=O)c1cnc3ccccc3n1)CSC(=O)[C@H](CSC)N(C)C2=O [Compound 27, [N-(2-Quinoxaline carboxyl)-D-Cys-Gly-NMe-L--Cys-NMe-L--CYS(Me)]2 (Cysteine Thiol) Dilactone] (I: Quinoxaline2carbonyl-[dC]G[NMeC][NMeC](Me) / II: Quinoxaline2carbonyl-[dC]G[NMeC][NMeC](Me); thioester I:1-II:C, I:C-II:1; disulfide I:3-II:3)
- cytotoxic activity (in words) (L1210 cell line): less potent cytotoxic activity

Structure (SMILES): CS[C@H]1SC[C@H]2C(=O)N(C)[C@@H](C(C)C)C(=O)OC[C@@H](NC(=O)c3cnc4ccccc4n3)C(=O)N[C@@H](C)C(=O)N(C)[C@@H]1C(=O)N(C)[C@@H](C(C)C)C(=O)OC[C@@H](NC(=O)c1cnc3ccccc3n1)C(=O)N[C@@H](C)C(=O)N2C [echinomycin, reference compound]
- agent/base pair ratio required to unwind supercoiled DNA (supercoiled ΦX174 DNA; form I to form II gel mobility): 0.044 agent/base pair ratio
- agent/base pair ratio for complete rewinding of supercoiled DNA (supercoiled ΦX174 DNA; form II to form I gel mobility): 0.22 agent/base pair ratio
- inhibition of HIV-1 reverse transcriptase (in words) [3]: weak inhibitor
- solubility (in words) [1]: low solubility
